Read-outs that look alike come from different tables or passages of the source.
How the values were obtained:
C6 glioma cells [1] = assay: GSH content in C6 glioma cultures after glutamate; type: cell-based; settings: for intracellular glutathione levels: 10 mM glutamate, 6 hr or more; for GSH content: glutamate 10 mM, without or with compound 1 μM
Source text: (§1) Competitive inhibition by glutamate of cystine uptake in certain cells leads to glutathione depletion and oxidative stress. This oxidative stress model has been described for glial C6 glioma cells (Kato et al., 1992. A mechanism for glutamate toxicity in the C6 glioma cells involving inhibition of cystine uptake leading to glutathione depletion. Neurosci. 48:903-914) and for the neuronal cell line N18RE105 (Murphy et al., 1989. Glutamate toxicity in a neuronal cell line involves inhibition of cystine transport leading to oxidative stress. Neuron 2:1547-1558).
(§2) Cell culture: The C6 glioma cell line (American Type Culture Collection, CCL 107) was cultivated in DMEM supplemented with 2 or 4 mM glutamine, 1 mM pyruvate and 5 or 10% heat-inactivated foetal calf serum. Cultures were maintained at 37° C. in an air/5~10% CO2, water saturated atmosphere.
(§3) Glutathione depletion and evaluation of drugs as antioxidants: Experiments were carried out with cultures plated at 30,000~50,000 cells/cm^2 in 24-well culture plates (for toxicity and lipid peroxide measurements) or at 136,000 cells/cm^2 in 96-well culture plates (for GSH determination). After 8-24 hr, the cultures were switched to culture medium in the absence or presence of the cystine uptake inhibitor glutamate at a final concentration of 10 mM. In order to test drugs for inhibition of oxidative stress, the drug was added together with glutamate (final concentration of solvent was 0.01% hydroxypropyl-β-cylodextrin, 0.1% DMSO). Intracellular glutathione levels were measured after 6~8 hr, lipid peroxides were measured after 14~20 hr, and toxicity and protection were analysed after 48 hr using an LDH assay according to the method of Bergmeyer and Bernt (UV-assay with pyruvate and NADH. In: Methods of Enzymatic Analysis. 1974. H. U. Bergmeyer, ed. Acad. Press, New York, 2nd Ed., pp 574-579).
Determination of GSH content in C6 glioma cultures: GSH levels were analysed by a micromethod, essentially as described by Vandeputte et al. (A microtiterplate assay for total glutathione and glutathione disulfide contents in cultured/isolated cells: performance study of a new miniaturised protocol. 1994. Cell Biol. Toxicol. 10:415-421), with a modification in the washing and homogenisation procedures. Cells (in 96-well plates) were washed with PBS, were homogenised in 50 μl 10 mM HCl containing 1.3% 5-sulfosalicylic acid, and the homogenate was centrifuged at 1200×g for 10 min at 4° C. Forty μl of the supernatant was transferred to a well of a 96-well plate and 200 μl reagent (1 mM 5,5'-dithiobis-(2-nitrobenzoic acid), 0.34 mM NADPH and 6.3 mM EDTA in 143 mM phosphate buffer pH 7.4) was added. After 5 min equilibration to room temperature the reaction was started by adding 40 μl glutathione reductase (8.5 IU/ml 143 mM phosphate buffer, 6.3 mM EDTA pH 7.4). NADPH oxidation was followed at 414 nm for 5 minutes with a Multiskan MCC/340 (Labsystems), and the change in absorbance (DA) per min was calculated. The glutathione content was deduced from a standard curve ranging from 0.2 to 2 nmol commercial GSH per test (DA/min plotted versus concentration).

[2] = tested on: primary embryonic hippocampal cultures; assay: VitE complementation (vitE depletion) test on primary neuronal cultures; type: cell-based, rats; settings: for rescue of survival of vitE depleted cultures: 10^-7 M and 10^-6 M
Method: Primary embryonic hippocampal cultures were prepared essentially as described previously (Pauwels et al., Van Aschouw, H. P., Peeters, L., Moeremans, M., Leysen, J. E. (1992) Chronic treatment with sabeluzole protects cultured rat brain neurons from the neurotoxic effects of excitatory amino acids. Synapse, 12:271-280). Hippocampal formations of rats at embryonic day 17 were dissected and dissociated in 0.05% trypsin, 0.1 mg/ml DNase I in DMEM (Dulbecco Modified Eagle Medium). Heat-inactivated horse serum (HS) was added to a concentration of 4%, and the cells were centrifuged, washed with DMEM, and resuspended in DMEM/Ham's F12 (3:1) containing 10% HS. The cells were plated at a density of 4×10^5 cells/cm^2 in poly L-lysine (0.001%) precoated multiwell-24 plates. On day 1 in culture, the medium was changed to chemically defined CDM-R12 medium (DMEM-HEPES/Ham's F12 (3:1) containing 0.26% bovine serum albumin, 30 nM sodium selenite, 3 nM 3,3',5 triiodo-L-thyronine, 0.35 μM retinol, 0.3 μM retinol acetate, 2.3 μM DL-a-tocopherol, 2.1 μM DL-a-tocopherol acetate, 3.6 μM linolenic acid, 3.6 μM linoleic acid, 0.125% human transferrin, […], 57.7 nM corticosterone, 49 U/I insulin, 0.4 μM biotin, 10 μM L-carnitine, 83 μM D(+)-galactose, 3.3 μM glutathione, 10 μM ethanolamine, 0.1 mM putrescine; Romijn, H. J., van Huizen, F., Wolters, P. S. (1984) Towards an improved serum-free, chemically defined medium for long-term culturing of cerebral cortex tissue. Neurosci. Behav. Rev., 8:301-334). Acute and prolonged pretreatment of the, cultures was essentially as described previously (Pauwels et al., 1992). Drugs were dissolved, and diluted in 10% or 1% hydroxypropyl-β-cyclodextrin such that the final concentrations of the solvent in the acute and chronic exposures were 0.1% and 0.01% respectively. Compound A as used in the following examples is [(RRSR)+(RRRS)+(SSSR) +(SSRS)]-α-[[[2-(chroman-2-yl)-2-hydroxy-ethyl]amino]methyl]-6-hydroxy-2-chromanmethanol ethanedioate (1:1).
For vitE depletion experiments, primary cultures were set up as above, but on day 1 in culture, the medium was changed to chemically defined CDM-R12 medium with (control) or without DL-a-tocopherol (vitE) and DL-a-tocopherol acetate, in the presence or absence of test coumpound. […] Addition of compounds could rescue the cultures. […] The EC50 for complementation of vitE refers to the concentration of the compound required to restore culture survival to 50% of the survival seen for the culture grown in vitE supplemented medium. Seven concentrations of each compound were tested in triplicate, the number of independent experiments is indicated in the table, and the mean EC50 -value±SD was calculated.
Primary neuronal cultures depend on the presence of the antioxidant vitE in the culture medium for survival in vitro. When vitE depleted medium is used to grow the cultures, survival drops to ±20% of control. Compounds with antioxidative properties are able to complement the lack of vitE, and as such can when added to the culture medium, rescue vitE devoid cultures. Several nebivolol derivatives were tested at 10^-7 M and 10^-6 M in the vitE depletion test on primary neuronal cultures.
When nebivolol derivatives were administered during culture, the cultures could be rescued to a certain extent. 100% vitE complementation refers to the survival of a cell culture which is indifferent from a vitE containing cell culture.
When hydroxynebivolol was administered during culture, the cultures could be rescued. The EC50 refers to the concentration at which the culture is rescued for 50%, as measured by cytoplasmic LDH activity.

C6 glioma cells [3] = assay: Protection of C6 glioma cells from glutathione depletion-mediated oxidative stress (toxicity, LDH assay); type: cell-based; settings: 10 mM glutamate; for IC50: 48 hr, read-out: Protection IC50 (mean ± SD, n = 3)
Source text: as §1, §2, §3

O[C@H](CNC[C@@H](O)[C@H]1CCc2cc(F)ccc2O1)[C@@H]1CCc2cc(F)ccc2O1 (relative stereo) [nebivolol, (RSSS) and (SRRR) α,α'-iminobis(methylene)bis[6-fluoro-2-chroman-methanol]]
intracellular glutathione levels (C6 glioma cells [1]): remained about half the levels seen in healthy control cells
GSH content (C6 glioma cells [1]): 301 ± 12 pmol/well
% vitE complementation ([2]; 10^-6 M): 29 ± 28%
% vitE complementation ([2]; 10^-7 M): 29 ± 29%
rescue of survival of vitE depleted cultures [2]: able to rescue survival of vitE depleted cultures to a certain extent
protection from cell death (C6 glioma cells [3]): protected these cultures from cell death with high potency
IC50 (C6 glioma cells [3]): 9.1 ± 0.1 nM
IC50 (C6 glioma cells [3]; C6 glioma, 48 h): ~9 nM

Oc1ccc2c(c1)CCC(C(O)CNCC(O)C1CCc3ccccc3O1)O2 (stereo not drawn) [Compound A, [(RRSR)+(RRRS)+(SSSR) +(SSRS)]-α-[[[2-(chroman-2-yl)-2-hydroxy-ethyl]amino]methyl]-6-hydroxy-2-chromanmethanol ethanedioate (1:1)]
intracellular glutathione levels (C6 glioma cells [1]): remained about half the levels seen in healthy control cells
GSH content (C6 glioma cells [1]): 301 ± 12 pmol/well
% vitE complementation ([2]; 10^-6 M): 85 ± 21%
rescue of primary neuronal cultures grown in VitE depleted medium ([2]; 10^-6 M): complete rescue
% vitE complementation ([2]; 10^-7 M): 27 ± 28%
rescue of survival of vitE depleted cultures [2]: able to rescue survival of vitE depleted cultures to a certain extent
EC50 ([2]; Rattus norvegicus, 5 dose responses, cytoplasmic LDH activity, read-out: mean EC50 ± SD for complementation of vitE): 126 ± 88 nM
protection from cell death (C6 glioma cells [3]): protected these cultures from cell death with high potency
IC50 (C6 glioma cells [3]): 8.6 ± 0.2 nM
IC50 (C6 glioma cells [3]; C6 glioma, 48 h): ~9 nM

From patent US5874461A, “Use of Nebivolol as an anti-atherogenic” (priority 1995, dated 1999)
